Results from paper PMC9959676 (Molecules, 2023).
Read-outs that look alike come from different tables or passages of the source.

Columns and labels:
[1] = test system: conscious rats; experiment: Antihypertensive effect, systolic blood pressure by tail-cuff method in conscious rats; assay type: in vivo, Wistar rats; conditions: 80 mg/kg intraperitoneally, n = 5, Control 108.28 ± 6.87, DMSO 81.10 ± 3.21
Method: (§1) Cervical disruption was used to eliminate male Wistar rats weighing 200 g and 300 g. The thoracic aorta segments (3 mm to 5 mm) were slightly pressed and […]. The tissues were placed in an organ bath filled with 10 mL of Krebs-Henseleit solution and kept at 37 °C. Then 95% oxygen and 5% carbon dioxide were passed through the above-mentioned solution. To record organ responses to phenylephrine, (10^−6 M) (Sigma, St. Louis, MO, USA) simulated contractions; isometric transducers and Gemini recorders (Ugo Basile, Varese, Italy) were assembled. Aortic rings were recon traced with phenylephrine (10^−6 M) and subjected to acetylcholine (10^−6 M) for recording endothelium-dependent relaxations (EDR). All synthesized compounds along with the standard (valsartan) were mixed in DMSO; whereas synthesized derivatives of concentration 10^−4 M were added in an organ bath. In conscious rats, systolic blood pressure was recorded by applying the tail-cuff method. Wistar rats of 200 g to 250 g weight were selected and divided into groups of five individuals. The chemicals were injected intraperitoneally at a dosage of 80 mg/kg body weight. The tail-cuff and a piezoelectric pulse sensor were coupled to a blood pressure analyzer and were positioned at the base of the tail (May 9610, Ankara, Turkey).
(§2) All results were presented as the mean of SEM. (n = 5) and test compounds were employed for statistical significance determination.

[2] = test system: thoracic aorta segments; experiment: Inhibition of phenylephrine-induced contraction on isolated aorta rings; design: species or system male Wistar rats; conditions: compounds 10^−4 M in organ bath, phenylephrine 10^−6 M, n = 5
Method: as §1, §2

[3] = target: urease (Canavalia ensiformis, UniProt P07374); experiment: biochemical; assay type: biochemical
Sequence of urease (P07374 whole entry, looked up): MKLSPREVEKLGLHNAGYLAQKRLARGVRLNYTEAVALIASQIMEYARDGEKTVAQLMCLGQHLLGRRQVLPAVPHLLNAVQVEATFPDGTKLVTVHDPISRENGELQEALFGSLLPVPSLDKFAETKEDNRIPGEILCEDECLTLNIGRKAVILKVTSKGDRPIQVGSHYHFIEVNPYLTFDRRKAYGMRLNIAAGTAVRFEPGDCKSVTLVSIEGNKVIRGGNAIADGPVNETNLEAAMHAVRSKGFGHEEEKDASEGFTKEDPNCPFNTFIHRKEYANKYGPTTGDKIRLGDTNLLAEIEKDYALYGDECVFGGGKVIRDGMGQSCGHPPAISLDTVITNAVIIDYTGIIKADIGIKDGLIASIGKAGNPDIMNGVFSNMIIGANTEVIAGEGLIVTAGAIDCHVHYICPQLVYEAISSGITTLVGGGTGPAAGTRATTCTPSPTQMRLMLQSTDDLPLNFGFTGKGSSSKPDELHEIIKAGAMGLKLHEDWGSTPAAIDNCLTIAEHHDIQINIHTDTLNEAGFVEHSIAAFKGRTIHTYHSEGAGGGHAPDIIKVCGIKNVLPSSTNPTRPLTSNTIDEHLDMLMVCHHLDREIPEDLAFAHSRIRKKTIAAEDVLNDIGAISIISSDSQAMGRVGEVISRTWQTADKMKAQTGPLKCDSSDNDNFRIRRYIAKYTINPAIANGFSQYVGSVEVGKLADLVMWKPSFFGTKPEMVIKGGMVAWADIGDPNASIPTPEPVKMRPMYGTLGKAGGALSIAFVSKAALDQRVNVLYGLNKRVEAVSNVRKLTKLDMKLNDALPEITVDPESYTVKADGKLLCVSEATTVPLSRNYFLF
Method: The activity performed was an improved procedure of the Berthelot assay. […] For 5 min, the mixture was incubated at 37 °C. Each well in a 96-well plate received 40 µL of urea stock solution (20 mM); incubated for 10 min at 37 °C. Afterwards, 115 µL phenol hypochlorite (45 µL phenol + 70 µL alkali) per well was added. Furthermore, all the contents were incubated for 10 min at 37 °C. Absorbance at 625 nm was measured. Using the provided formula, the % of enzyme-inhibition and IC-50 values were computed Inhibition (%age) = [Control − test/100(control)] where Control = [Total enzyme activity minus inhibitor]. The test is the test compounds’ activity

[4] = DPPH free radical scavenging assay; conditions: 1.0 mL sample 0.5 mg/mL + 2 mL DPPH 0.2 mg/mL, 30 min, 517 nm
Method: The DPPH assay was carried out to estimate the antioxidant potential among all the compounds [29]. Then, 2 mL (0.2 mg/mL in methyl alcohol) of DPPH was mixed with 1.0 mL (0.5 mg/mL in methyl alcohol) of the sample solution in a test tube. All the reaction tubes were covered with aluminum foil and kept aside for 30 min to complete the reaction. The activity was carried out in a dark room. […] A UV-visible spectrophotometer was employed to observe a reduction in the concentration of free radicals at 517 nm. The absorbance of the control (1.0 mL methanol + 2 mL DPPH solution) was also measured. All samples were evaluated in a triplicate manner, and the mean results were recorded. The standard antioxidant (ascorbic acid) was evaluated and set as a reference/standard. The percentage of inhibition (%) was calculated using the following formula in terms of scavenging activity(S):S (%) = [(Ab − Aa)/Ab] × 100(1) where Ab = Absorbance of control; and Aa = Absorbance of the test sample

[5] = test system: Escherichia coli; experiment: Antibacterial agar-well diffusion; assay type: cell-based; conditions: sample 100 mg/5 mL in DMSO; ceftriaxone sodium 20 mg/10 mL; 37 °C, 24 h; 6 mm wells
Method: (§3) After sterilizing the Mueller Hinton agar medium on plates in an autoclave and allowing it to cool to roughly 45 °C, a 100 µL standard inoculum was aseptically mixed, chilled till 37 °C, and 6 mm wells were formed in the inoculated plates. The volume of 100 μL (100 mg/5 mL in DMSO), ceftriaxone sodium (20 mg/10 mL in DMSO) as a positive control, and pure DMSO as a negative control; 30 μL of the sample solution was incorporated into these wells. These primed plates were incubated at 37 °C for 24 h prior to record inhibitory zones in millimeters.

[6] = test system: Bacillus pumilus; experiment: Antibacterial agar-well diffusion; assay type: cell-based; conditions: sample 100 mg/5 mL in DMSO; ceftriaxone sodium 20 mg/10 mL; 37 °C, 24 h; 6 mm wells
Method: as §3

[7] = test system: Staphylococcus aureus; experiment: Antibacterial agar-well diffusion; assay type: cell-based; conditions: sample 100 mg/5 mL in DMSO; ceftriaxone sodium 20 mg/10 mL; 37 °C, 24 h; 6 mm wells
Method: as §3

[8] = test system: Pseudomonas aeruginosa; experiment: Antibacterial agar-well diffusion; assay type: cell-based; conditions: sample 100 mg/5 mL in DMSO; ceftriaxone sodium 20 mg/10 mL; 37 °C, 24 h; 6 mm wells
Method: as §3

Row | Compound | Mean of Systolic Blood Pressure ± SEM [1] | %ge inh. of Phenylephrine Cont. (±SEM) [2] [%] | IC50 ([3]; urease, pH 7.0, 37 °C, read-out: IC50 ± SEM) [nM] | %Age Inhibition ± SEM [4] [%] | Zone of Inhibition Gram -Ve Bacteria E. coli Mean ± SEM [5] [millimeters] | Zone of Inhibition Gram +ve Bacteria B.pumilus Mean ± SEM [6] [millimeters] | Zone of Inhibition Gram +ve Bacteria S. aureus Mean ± SEM [7] [millimeters] | Zone of Inhibition Gram -Ve Bacteria P. aeruginosa Mean ± SEM [8] [millimeters] | inhibition at 100 µM ([2]; Rattus norvegicus, read-out: %ge inh. of Phenylephrine Cont. (±SEM)) [%] | IC50 [3] [nM]
1 | CCCCC(=O)N(Cc1ccc(-c2ccccc2-c2nn[nH]n2)cc1)C(C(=O)OC(C(=O)c1ccccc1)c1ccccc1)C(C)C (stereo not shown) [AV1, 2-oxo-1,2-diphenylethyl 2-(N-((2′-(2H-tetrazol-5yl)-[1,1′-biphenyl]-4-yl)methyl)pentanamido)-3methyl butanoate] | 81.78 ± 3.87 | 67.3 ± 4.7 | 2560 ± 320 | 73.9 ± 0.49 | 11.06 ± 0.55 | 10.33 ± 0.40 | 10.83 ± 0.31 | 10.36 ± 0.28 |  | 
2 | CCCCC(=O)N(Cc1ccc(-c2ccccc2-c2nn[nH]n2)cc1)C(C(=O)O)C(C)C (stereo not shown) [AV0, 2-(N-((2′-(2H-tetrazole-5-yl)-[1,1′-biphenyl]-4yl)-methyl)-pentanamido)-3-methyl butanoic acid, reference compound] | 82.41 ± 4.32 |  |  | 64.6± 0.50 | 10.40 ± 0.69 | 11.36 ± 0.49 | 12.13 ± 0.72 | 12.43 ± 0.67 | 65.3 ± 3.6 | 3210 ± 950
